One experiment has as its target T1, recombinant murine JAK3 (Mus musculus, UniProt Q62137).
T1 construct: made in house; host or cells: Sf21 insect cells, baculovirus
T1 sequence (Q62137 1-1100): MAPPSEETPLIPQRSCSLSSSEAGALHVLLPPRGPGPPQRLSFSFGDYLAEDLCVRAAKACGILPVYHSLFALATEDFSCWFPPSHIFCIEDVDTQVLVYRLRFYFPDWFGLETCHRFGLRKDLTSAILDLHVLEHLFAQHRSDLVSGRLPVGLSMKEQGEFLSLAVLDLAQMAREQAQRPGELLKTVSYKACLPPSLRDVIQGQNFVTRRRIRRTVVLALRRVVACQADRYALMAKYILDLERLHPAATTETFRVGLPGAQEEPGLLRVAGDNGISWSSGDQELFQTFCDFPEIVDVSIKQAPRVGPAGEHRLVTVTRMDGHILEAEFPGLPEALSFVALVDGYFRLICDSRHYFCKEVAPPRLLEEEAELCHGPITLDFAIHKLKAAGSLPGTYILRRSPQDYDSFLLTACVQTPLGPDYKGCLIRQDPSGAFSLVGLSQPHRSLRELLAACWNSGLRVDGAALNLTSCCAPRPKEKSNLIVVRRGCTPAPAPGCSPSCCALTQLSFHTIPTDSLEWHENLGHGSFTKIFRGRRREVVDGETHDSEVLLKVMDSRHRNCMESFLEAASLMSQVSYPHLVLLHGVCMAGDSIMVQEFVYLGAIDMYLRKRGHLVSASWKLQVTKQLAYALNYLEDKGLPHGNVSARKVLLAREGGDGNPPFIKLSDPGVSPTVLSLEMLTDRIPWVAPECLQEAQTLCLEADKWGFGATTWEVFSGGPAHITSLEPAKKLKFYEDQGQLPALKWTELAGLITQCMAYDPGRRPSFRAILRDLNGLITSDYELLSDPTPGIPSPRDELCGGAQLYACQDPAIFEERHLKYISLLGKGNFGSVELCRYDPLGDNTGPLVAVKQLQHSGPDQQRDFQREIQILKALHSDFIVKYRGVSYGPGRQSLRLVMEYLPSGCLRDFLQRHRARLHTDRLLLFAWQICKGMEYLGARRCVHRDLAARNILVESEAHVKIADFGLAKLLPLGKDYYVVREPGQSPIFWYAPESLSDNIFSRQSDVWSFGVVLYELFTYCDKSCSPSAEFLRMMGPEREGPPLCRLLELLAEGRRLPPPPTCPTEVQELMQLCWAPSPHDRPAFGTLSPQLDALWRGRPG
Nature of the experiment: Immune complex kinase assay, recombinant JAK3 from baculovirus expression system. The class given is biochemical. The following applies: recombinant murine JAK3, FIG. 6B. As to the method: (§1) Immune Complex Kinase Assays.
KL-2 EBV-transformed human lymphoblastoid B cells (native JAK3 kinase assays) or insect ovary cells (recombinant JAK3 kinase assays) were lysed with NP-40 lysis buffer (50 mM Tris, pH 8, 150 mM NaCl, 5 mM EDTA, 1% NP-40, 100 μM sodium orthovanadate, 100 μM sodium molybdate, 8 μg/ml aprotinin, 5 μg/ml leupeptin, and 500 μM PMSF) and centrifuged 10 minutes at 13000×g to remove insoluble material. Samples were immunoprecipitated with antisera prepared against JAK3. The antisera were diluted and immune complexes collected by incubation with 15 μl protein A Sepharose. After 4 washes with NP-40 lysis buffer, the protein A Sepharose beads were washed once in kinase buffer (20 mM MOPS, pH 7.0, 10 mM MgCl2) and resuspended in the same buffer. Reactions were initiated by the addition of 25 μCi γ[^32P] ATP (5000 Ci/mMole) and unlabeled ATP to a final concentration of 5 μM. Reactions were terminated by boiling for 4 min in SDS sample buffer. Samples were run on 9.5% SDS polyacrylamide gels and labeled proteins will be detected by autoradiography. […] For each drug concentration, a kinase activity index (KA) was determined by comparing the kinase activity in phosphorimager units (PIU) to that of the baseline sample. […]

In experiment [1] the test system is JAK3-dependent STAT activation. Kind of experiment: EMSA, IL-2 triggered STAT activation in 32Dc11/IL2Rβ cells. The class given is cell-based. As for the experimental part:
(§2) Electrophoretic Mobility Shift Assays (EMSAs). EMSAs were performed to examine the effects of dimethoxyquinazoline compounds on cytokine-induced STAT activation (Goodman et. al., 1998). […] Cells were collected after 15 minutes and resuspended in lysis buffer (100 mM Tris-HCl pH 8.0, 0.5% NP-40, 10% glycerol, […], 0.1 mM NaVO3, 50 mM NaF, 150 mM NaCl, 1 mM DTT, 3 μg/ml Aprotinin, 2 μg/ml Pepstatin A, 1 μg/ml Leupeptin and 0.2 mM PMSF). Lysates were precleared by centrifugation for 30 min. Cell extracts (approximately 10 μg) were incubated with 2 μg of poly(dI-dC) for 30 minutes, followed by a 30 minutes incubation with 1ng of poly. nucleotide kinase-^32P labeled double stranded DNA oligonucleotide representing the IRF-1 STAT DNA binding sequence (Santa Cruz Biotechnology, Santa Cruz, Calif.). Samples were resolved by non-denaturing PAGE and visualized by autoradiography.

The next experiment concerns the target recombinant JAK2 (Homo sapiens, UniProt O60674). Nature of the experiment: Immune complex kinase assay, recombinant JAK2. The following applies: FIG. 6C & D.
Another experiment deals with T2, recombinant JAK1 (Homo sapiens, UniProt P23458).
T2 construct: made in house; host or cells: Sf21 insect cells, baculovirus
T2 sequence (P23458 whole entry): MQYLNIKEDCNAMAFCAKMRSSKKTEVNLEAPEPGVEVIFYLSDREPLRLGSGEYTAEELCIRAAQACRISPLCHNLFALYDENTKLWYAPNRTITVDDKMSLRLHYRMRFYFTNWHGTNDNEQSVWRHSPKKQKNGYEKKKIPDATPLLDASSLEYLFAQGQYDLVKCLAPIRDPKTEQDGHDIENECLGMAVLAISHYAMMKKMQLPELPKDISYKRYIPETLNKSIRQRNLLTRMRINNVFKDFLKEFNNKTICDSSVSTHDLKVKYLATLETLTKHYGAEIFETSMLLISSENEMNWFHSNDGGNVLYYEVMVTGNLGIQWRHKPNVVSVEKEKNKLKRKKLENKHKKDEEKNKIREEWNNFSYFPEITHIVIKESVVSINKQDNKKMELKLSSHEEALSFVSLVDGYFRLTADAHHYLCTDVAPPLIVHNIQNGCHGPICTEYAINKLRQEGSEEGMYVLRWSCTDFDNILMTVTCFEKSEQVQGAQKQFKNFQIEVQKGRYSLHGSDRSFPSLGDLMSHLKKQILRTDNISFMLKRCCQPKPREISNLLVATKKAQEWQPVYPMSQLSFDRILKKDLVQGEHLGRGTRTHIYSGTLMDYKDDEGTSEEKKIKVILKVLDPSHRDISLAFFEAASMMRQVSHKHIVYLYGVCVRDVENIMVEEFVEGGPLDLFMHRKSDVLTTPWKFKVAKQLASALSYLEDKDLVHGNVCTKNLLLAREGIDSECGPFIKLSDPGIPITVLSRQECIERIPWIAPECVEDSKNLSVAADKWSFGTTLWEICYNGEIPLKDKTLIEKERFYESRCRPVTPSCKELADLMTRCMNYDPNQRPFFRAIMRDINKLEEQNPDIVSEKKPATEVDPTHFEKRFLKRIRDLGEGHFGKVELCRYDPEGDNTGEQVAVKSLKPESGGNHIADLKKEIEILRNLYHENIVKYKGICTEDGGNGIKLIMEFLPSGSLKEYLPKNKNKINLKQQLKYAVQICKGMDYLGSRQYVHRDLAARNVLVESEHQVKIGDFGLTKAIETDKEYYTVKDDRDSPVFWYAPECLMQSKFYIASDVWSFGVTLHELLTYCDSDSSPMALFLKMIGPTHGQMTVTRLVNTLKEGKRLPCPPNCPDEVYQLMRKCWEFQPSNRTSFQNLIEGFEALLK
Kind of experiment: Immune complex kinase assay, recombinant JAK1. The class given is biochemical. The conditions noted are these: FIG. 6C & D.
Text: as §1

Experiment [2] deals with JAK1/JAK2-dependent STAT activation. Kind of experiment: EMSA, IL-3 triggered STAT activation in 32Dc11/IL2Rβ cells. The class given is cell-based. The following applies: 10 μg/ml. As to the method: as §2
For a further experiment, the system named is RBL-2H3 mast cells. Nature of the experiment: IgE/antigen-induced degranulation and mediator release. The class given is cell-based, rat. The following applies: 1 h preincubation, DNP-BSA challenge; at ≧30 μM. The text has this:
Vehicle treated control RBL-2H3 cells released 45.1±3.1% of their hexosaminidase contents after DNP-BSA challenge. […] Vehicle treated control cells released 11.3±1.3 pg LTC4, and 160±33.0 pg TNFα/10^6 mast cells. The results on LTC4 and TNFα release are expressed as percent of maximum control release from vehicle treated control mast cells. The data points represent the mean±SEM values obtained from 3-6 independent experiments. […] *P<0.05 and **P<0.0001 compared to control as determined by Student's t test.
Supernatants were removed and saved.

Where two headings read alike, the source gives them in different places.

recombinant JAK2, sequence (O60674 whole entry): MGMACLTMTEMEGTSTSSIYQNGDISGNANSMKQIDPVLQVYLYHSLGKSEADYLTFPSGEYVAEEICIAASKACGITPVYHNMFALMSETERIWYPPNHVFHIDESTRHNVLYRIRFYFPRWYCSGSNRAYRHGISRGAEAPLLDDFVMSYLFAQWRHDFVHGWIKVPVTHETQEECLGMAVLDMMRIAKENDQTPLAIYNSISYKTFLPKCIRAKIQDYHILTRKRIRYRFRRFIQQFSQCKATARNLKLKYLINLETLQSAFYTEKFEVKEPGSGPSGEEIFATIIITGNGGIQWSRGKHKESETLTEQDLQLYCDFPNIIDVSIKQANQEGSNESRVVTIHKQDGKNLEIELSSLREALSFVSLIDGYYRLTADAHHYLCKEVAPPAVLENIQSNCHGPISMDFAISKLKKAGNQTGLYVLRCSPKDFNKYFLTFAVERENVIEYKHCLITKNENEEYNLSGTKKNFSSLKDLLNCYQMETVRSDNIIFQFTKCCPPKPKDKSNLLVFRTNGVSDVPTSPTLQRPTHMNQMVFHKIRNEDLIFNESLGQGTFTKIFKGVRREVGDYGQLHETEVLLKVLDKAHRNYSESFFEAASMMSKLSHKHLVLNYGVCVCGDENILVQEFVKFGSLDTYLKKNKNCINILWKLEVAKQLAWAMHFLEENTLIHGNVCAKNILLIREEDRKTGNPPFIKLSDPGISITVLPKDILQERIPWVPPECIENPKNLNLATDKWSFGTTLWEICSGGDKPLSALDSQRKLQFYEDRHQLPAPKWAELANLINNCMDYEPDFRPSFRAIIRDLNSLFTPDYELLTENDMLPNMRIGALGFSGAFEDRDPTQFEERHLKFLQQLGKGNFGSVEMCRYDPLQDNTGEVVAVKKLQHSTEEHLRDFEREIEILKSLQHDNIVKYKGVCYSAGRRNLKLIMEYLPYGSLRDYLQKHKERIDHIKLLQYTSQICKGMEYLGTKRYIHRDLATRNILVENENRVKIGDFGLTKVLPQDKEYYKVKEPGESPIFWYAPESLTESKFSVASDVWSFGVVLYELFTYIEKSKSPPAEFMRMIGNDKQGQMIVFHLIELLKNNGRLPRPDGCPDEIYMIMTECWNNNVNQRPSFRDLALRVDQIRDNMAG
Protocol for recombinant JAK2: In FIGS. 6A-6D, JAK3, JAK1, and JAK2 were immunoprecipitated from Sf21 insect ovary cells transfected with the appropriate baculovirus expression vectors and treated with WHI-P131, then subjected to in vitro kinase assays as described in the Examples below. The enzymatic activity of JAKs was determined by measuring autophosphorylation in a 10 minute kinase assay, as described in the Examples below. The kinase activity (KA) levels were expressed as percentage of baseline activity (%CON).
Immune Complex Kinase Assays. Sf21 (IPLB-SF21-AE) cells (Vassilev et. al., 1999, J. Biol. Chem,. 274:1646-1656) derived from the ovarian tissue of the fall armyworm Spodotera frugiperda, were obtained from Invitrogen and maintained at 26-28° C. in Grace's insect cell medium supplemented with 10% FBS and 1.0% antibiotic/antimycotic (GIBCO-BRL). Stock cells were maintained in suspension at 0.2-1.6×10^6/ml in 600 ml total culture volume in 1 L Bellco spinner flasks at 60-90 rpm. Cell viability was maintained at 95-100% as determined by trypan blue dye exclusion.
Sf21 cells were infected with a baculovirus expression vector for BTK, SYK, JAK1, JAK2, or JAK3, as previously reported (Mahajan et. al., 1999, J. Biol. Chem., 274:1646-1656). […]

A word on the IC50: it is the concentration that gives 50% inhibition. Consider `COc1cc2ncnc(Nc3ccc(O)c(Br)c3)c2cc1OC` [WHI-P154, 4-(3′-Bromo-4′-hydroxylphenyl)-amino-6,7-dimethoxyquinazoline], for which the 50% inhibitory concentration (IC50) on recombinant murine JAK3 was 48.1 µg/mL. At recombinant murine JAK3 (molar value in brackets, read-out: IC50), the half-inhibitory concentration (IC50) was about 128 µM. For the same compound, in experiment [1] (10 μg/ml, 32Dc11/IL2Rβ cells), the “JAK3-dependent STAT activation after stimulation with IL-2” value is given as “inhibited”. Further, the “IL-2 triggered JAK-3-dependent STAT activation” value in experiment [1] (100 μg/ml in FIG. 6E legend) was “inhibited”. The “inhibitory activity against recombinant JAK2” value on recombinant JAK2 is on record as “did not exhibit any detectable inhibitory activity”. At recombinant JAK1, the “inhibitory activity against recombinant JAK1” value is reported as “did not exhibit any detectable inhibitory activity”. For the same compound, the “JAK1/JAK2-dependent STAT activation after stimulation with IL-3” value in experiment [2] is given as “did not affect”. Besides, in the experiment with RBL-2H3 mast cells, the LTC4 release entry was “near to complete inhibition”, the TNFα release result is on record as “near to complete inhibition” and the “β-hexosaminidase release (degranulation)” value was “near to complete inhibition”.

Values taken from patent publication US6452005B1, “JAK-3 inhibitors for treating allergic disorders” (Parker Hughes Institute, priority 1999, dated 2002).
